Data as given in US9101566B2, “Fermentation product of cereal plant-derived material and immunomodulator” (KIRIN HOLDINGS KABUSHIKI KAISHA, priority 2009, dated 2015).

Key:
[1] = test system: C57BL/6 mDCs co-cultured with BALB/c CD8+ T cells; test: CD8+ Treg differentiation-inducing capacity of DCs treated with 14-DHE (Example 12); assay type: cell-based, mouse; conditions: mDC:CD8+ T 1:10; 0.5 ng/mL TGF-α 3; 5 days
Method: In a manner similar to Example 11, mDCs were sorted from DCs induced from C57BL/6 mouse bone marrow cells in the presence of 14-DHE and Flt-3L. Next, CD8^+ T cells were isolated from the BALB/c mouse spleen using the CD8α^+ T cell isolation kit (mouse) (Miltenyi Biotec). Cells were mixed at a ratio of mDC:CD8^+ T cell of 1:10 and then cultured in the medium containing 0.5 ng/mL […] for 5 days. Five days later, the cells were recovered and then the proportion of CD25^+FoxP3^+ cells in CD8^+ T cells was determined using a flow cytometer. Prior to flow cytometry, cell staining was performed using CD8α-PE-Cy7, CD25-APC-Cy7, and CD3e-PerCP, cell membrane permeabilization treatment was performed using the FoxP3 staining buffer set (eBioscience), and then FoxP3-PE staining was performed.

[2] = test system: C57BL/6 mDCs co-cultured with BALB/c CD4+CD62L+ T cells; test: Cytokine profile of CD4+ T cells induced by DCs treated with 14-DHE, MLR (Example 11); assay type: cell-based, mouse; conditions: 14-DHE 3 μM, day 4 supernatant, vs control mDC
Method: In a manner similar to that described in the above Examples, bone marrow cells were prepared from C57BL/6 mouse thigh bone, and then dendritic cells were induced using Flt-3L. 14-DHE was added at 3 μM simultaneously with the initiation of culture. Seven days later, Salmonella typhosa-derived LPS (Sigma Aldrich) was added at 5 ng/mL and then 24 hours later, cells were recovered. Subsequently, CD11c^+CD11b^+ was set as a gate for mDCs and then recovered cells were sorted. Next, from the BALB/c mouse spleen, CD4^+CD62L^+ T cells were isolated using the CD4^+CD62L^+ T cell isolation kit II (mouse) (Miltenyi Biotec), followed by mixed culture at a ratio of mDC:CD4^+T cell of 1:5. As a control, mDC prepared in the absence of 14-DHE was used. A culture supernatant on day 4 of culture was recovered, and then TNF-α, IFN-γ, IL-6, IL-10, and IL-17 were measured by ELISA. As ELISA kits, Mouse TNF-α Ready-SET-Go! (eBioscience), a BD OptEIA Mouse IFN-γ ELISA set (BD Life Science), Mouse IL-6 Ready-SET-Go! (eBioscience), a BD OptEIA Mouse IL-10 ELISA set (BD Life Science), and Mouse IL-17 DuoSet ELISA (R&D Systems) were separately used.

[3] = test system: CD4+ T cells in regional lymph node cells and spleen cells of EAE mice; test: EAE model, day 11 autopsy: CD4+ T cell proliferation (CFSE); assay type: in vivo, mouse
Method: (§1) On day 0, the 35-55 peptide (MOG35-55, Operon), a glycoprotein of myelin oligodendroglial cells, as an antigen was mixed with complete Freund's adjuvant (CFA, Difco) and then the mixture was subcutaneously administered at a dose of 200 μg/animal. Subsequently, pertussis toxin (Wako Pure Chemical Industries, Japan) was intraperitoneally administered at a dose of 200 ng/animal on day 1 and day 3, thereby inducing the onset of multiple sclerosis. During days 7 to 18, 14-DHE was intraperitoneally administered at a dose of 10 μg/animal once a day. To the vehicle group, the following solvent for 14-DHE was administered: 10% ethanol (Wako Pure Chemical Industries, Japan)/10% Cremophor (Wako Pure Chemical Industries, Japan)/80% PBS (Takara, Japan).
(§2) Mice were autopsied on day 11 (when inflammation was thought to take place in vivo) to obtain biochemical data.
(3) Regional lymph node cells and spleen cells were stained using the CellTrace CFSE Proliferation kit (Molecular Probes). The stained cells were seeded at a concentration of 1×10^6 cells/mL and then cultured for 3 days with stimulation with 2 μM MOG. Cells were recovered, stained with CD3-PerCP and CD4-APC, and then subjected to FACS analysis. Cell proliferation was evaluated as a proportion of cells with decreased CFSE fluorescence intensity in all cells.

[4] = test system: mDCs treated with 14-DHE co-cultured with naive CD4+ T cells; test: Antigen-non-specific Treg-inducing capacity (MLR) of DCs treated with 14-DHE (Example 10); assay type: cell-based, mouse
Method: In a manner similar to that in the above Examples, DCs were induced using Flt-3L from BALB/c mouse bone marrow cells in the presence of a processed product of wheat bran fermented with koji and then treated with LPS for 24 hours. mDCs were sorted from the thus obtained cells in a manner similar to that in Example 3 and then subjected to mitomycin C treatment to stop the DC proliferation.
Next, naive CD4^+ T cells were sorted from C57BL/6, DCs and the sorted cells were mixed at DC:CD4^+T=1:10 (the number of cells), and then they were co-cultured. At this time, the medium was supplemented with 0.5 ng/mL TGF-β1 (Peprotech).
Seven days layer, cells were recovered and then the proportion of FoxP3^+CD25^+ T cells in CD^+ T cells was determined using a flow cytometer (after staining of cell surface markers using anti-CD25-FITC, anti-CD3-APC-Cy7, and anti-CD4-PerCP, cell permeabilization treatment was performed using a Foxp3 Staining Buffer Set (e Bioscience) according to the manufacturer's instructions, and then intracellular Foxp3 was stained with anti-Foxp3-PE (e Bioscience)). […]
In a manner similar to that in Example 5, the Treg-inducing activity of mDCs treated with 14-DHE was measured. […]

[5] = test system: CD4+ T cells in regional lymph node cells and spleen cells of EAE mice; test: EAE model, day 11 autopsy: intracellular cytokine positive rate in CD4+ T cells; assay type: in vivo, mouse; conditions: re-stimulation with 2 μM MOG
Method: as §1, §2
(2) Spleen cells and regional lymph node (inguinal or axillary) cells were prepared and then cultured for 3 days with re-stimulation with 2 μM MOG. Golgi plug (1 μL/mL) (Becton, Dickinson and Company) was added and then further incubation was performed for 4.5 hours. Cells were recovered and then subjected to cell surface staining with CD4-PerCP and CD3-APC-Cy7. Next, cell membrane permeabilization treatment was performed using the Cytofix/CytoPerm kit (Becton, Dickinson and Company), intracellular cytokine staining was performed using antibodies to TNF-α-FITC, IL-17-PE, IL-10-APC, and IFN-γ-PE-Cy7, and then the positive rate of intracellular cytokines in CD4^+ T cells was measured using FACS.

With `CC(C)[C@@H](C)/C=C/[C@@H](C)[C@H]1CC=C2C3=CC=C4C[C@@H](O)CC[C@]4(C)[C@H]3CC[C@@]21C` [Sample 14-DHE, ergosta-5,7,14,22-tetraen-3β-ol] the “induction of CD8+CD25+FoxP3+ cells compared with control mDCs” value [1] was no less than 3 times, the “IFN-γ production (ELISA)” value [2] was “significant decreases” and the “IL-6 production (ELISA)” value [2] was “significant decreases”. The “IL-10 production (ELISA)” value [2] was “no statistically significant difference was observed”, the “IL-17 production (ELISA)” value [2] was “significant decreases” and the “TNF-α production (ELISA)” value [2] was “significant decreases”. The “proliferation rate of CD4+ T cells in lymph node cells” value [3] was “decreasing trend”, the “proliferation rate of CD4+ T cells in spleen cells” value ([3]; with or without re-stimulation with MOG antigen) was “significant decrease” and the “generation of Treg compared with the control” value [4] was “about 2 times”. For the same molecule, the “IFN-γ production by CD4+ T cells, lymph node cells” value [5] was “significantly decrease”, the “IFN-γ production by CD4+ T cells, spleen cells” value [5] was “significantly decrease” and the “IL-17 production by CD4+ T cells, spleen cells” value [5] was “significantly decrease”. The “TNF-α production by CD4+ T cells, lymph node cells” value [5] was “significantly decrease” and the “TNF-α production by CD4+ T cells, spleen cells” value [5] was “significantly decrease”.
